From patent publication US7919488B2, “Therapeutic compounds” (Pfizer Inc., priority 2006, dated 2011)

Columns and labels:
Type in all cases: biochemical
[1] = target: T1, recombinant CYP3A4-b5 enzyme (Baculosomes®) (Homo sapiens, UniProt P08684); experiment: Kiapp against recombinant CYP3A4 enzyme (Baculosomes), BFC substrate; settings: recombinant CYP3A4-b5 (Invitrogen), 5 uM BFC, 200 uM NADPH, pre-incubation at least 30 minutes, pH 7.0, room temperature
T1 construct: purchased Invitrogen (Carlsbad, Calif.)
T1 sequence (P08684 whole entry): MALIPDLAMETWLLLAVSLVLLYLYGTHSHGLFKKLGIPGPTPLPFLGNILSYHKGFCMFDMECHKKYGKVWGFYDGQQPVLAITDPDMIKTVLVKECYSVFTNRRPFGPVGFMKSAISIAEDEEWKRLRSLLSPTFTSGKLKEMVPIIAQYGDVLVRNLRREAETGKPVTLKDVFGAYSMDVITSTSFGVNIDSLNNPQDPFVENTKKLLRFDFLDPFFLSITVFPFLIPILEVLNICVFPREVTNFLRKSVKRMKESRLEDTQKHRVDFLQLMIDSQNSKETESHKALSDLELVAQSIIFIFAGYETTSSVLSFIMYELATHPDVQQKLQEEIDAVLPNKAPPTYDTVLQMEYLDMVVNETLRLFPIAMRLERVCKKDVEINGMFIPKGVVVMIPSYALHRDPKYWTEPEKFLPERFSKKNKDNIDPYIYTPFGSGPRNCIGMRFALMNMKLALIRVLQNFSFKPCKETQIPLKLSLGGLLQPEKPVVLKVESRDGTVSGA
Protocol: 1. Determination of Compound Kiapp
A determination of the Kiapp of the compounds of the invention against recombinant CYP3A4 enzyme was performed as follows. The assay was performed in a 100 mM sodium phosphate buffer pH 7.0, 5 mM TCEP and containing 2% dimethylformamide (final concentration) upon addition of substrate and inhibitor. A typical reaction for the determination of Kiapp values was carried at room temperature in a solid black Costar u-bottom 96-well polypropylene plate. […] When pre-incubation was completed (˜30 min), the reaction was initiated by adding NADPH (200 uM, final concentration), and 7-benzyloxy-4-(trifluoromethyl)-coumarin (BFC) (5 uM, final concentration). The oxidation of the coumarin substrate was recorded by a 96-well plate reader POLARstar (BMG LABTECH, Offenburg, Germany).
The initial reaction velocities were measured during the first 5 min of the reaction when the release of the fluorescent product is linear with time, in the absence and in the presence of various concentrations of inhibitors.
The fluorescent substrate BFC was purchased from Sigma (St Louis, Mo.). Two commercial sources of recombinant enzymes were used in this study: recombinant CYP3A4-b5 enzyme (Baculosomes®) was purchased from Invitrogen (Carlsbad, Calif.) and the recombinant CYP3A4+b5 enzyme (Supersomes®) was purchased from BD Biosciences (Woburn, Mass.).

CYP3A4 [2] = target: T2, CYP3A4 (Homo sapiens, UniProt P08684); experiment: IC50 against CYP3A4 by inhibition of midazolam metabolism in human liver microsomes; settings: 0.1 mg/mL human liver microsomes, 2 μM midazolam, 1 mM NADPH, 1-hydroxymidazolam production, eight minutes; read-out: IC50, μM (HLM, midazolam)
T2 construct: 0.1 mg/mL human liver microsomes; from tissue; host or cells: human liver microsomes
T2 sequence (P08684 whole entry): as above
Protocol: 3. Determination of IC50 Against CYP3A4 by Measurement of Inhibition of Midazolam Metabolism
This assay was performed using a standard 96 well plate design. […] The incubation substrate mix contains 2 μM midazolam, 0.1 mg/mL human liver microsomes, 1 mM NADPH, and potassium phosphate buffer (100 mM, pH 7.4). Quantitation of metabolite peak area ratio against internal standard is determined by LC-MS/MS analysis. The production of 1-hydroxymidazolam from midazolam metabolism is determined after incubation for eight minutes by comparison to a standard curve generated for the metabolite.
(§1) Samples were analyzed in the MRM mode using a Sciex API 3000 mass spectrometer (Applied Biosystems, Foster City, Calif.) with a Paradigm MS4 binary pump (Michrom BioResources Inc., Auburn, Calif.) and a LEAP CTC PAL autosampler (LEAP Technologies, Carrboro, N.C.). A Phenomenex Synergi, 4μ, Polar-RP, 10×2.0 mm column (Phenomenex, Torrance, Calif.) was used for separation with a mobile phase composition of: 0.1% formic acid in water (A) and: 0.1% formic acid in methanol (B). The following gradient was used: […]
(§2) The sample injection volume was 10 μL and flow was split post-column with 0.4 mL/min going to the mass spectrometer. Analysis was performed using the following API 3000 mass spectrometer settings: […]

CYP3A4 [3] = target: T2, CYP3A4; experiment: IC50 against CYP3A4 by inhibition of testosterone metabolism in human liver microsomes; settings: 0.1 mg/mL human liver microsomes, 25 μM testosterone, 1 mM NADPH, 6-β-OH-testosterone production, eight minutes; read-out: IC50, μM (HLM, testosterone)
Protocol: 2. Determination of IC50 Against CYP3A4 by Measurement of Inhibition of Testosterone Metabolism
This assay was performed using a standard 96 well plate design. […] Quantitation of metabolite peak area ratio against an internal standard is determined by LC-MS/MS analysis. The production of 6-β-OH-testosterone from testosterone metabolism is determined after incubation for eight minutes by comparison to a standard curve generated for the metabolite
as §1, §2

| SMILES | Ki [1] [µM] | IC50 (CYP3A4 [2]) [µM] | IC50 (CYP3A4 [3]) [µM] |
| --- | --- | --- | --- |
| Fc1ccc(Cc2cc(-c3ccncc3)nn2Cc2nc(N3CCOCC3)no2)cc1 [Example 70, 4-(5-{[5-(4-fluorobenzyl)-3-pyridin-4-yl-1H-pyrazol-1-yl]methyl}-1,2,4-oxadiazol-3-yl)morpholine] | 0.0238 | 0.019 | < 0.012 |
| CN(C)[C@@H]1CCN(C(=O)Cn2nc(-c3ccncc3)cc2Cc2ccc(F)cc2)C1 [Example 72, (3R)-1-{[5-(4-fluorobenzyl)-3-pyridin-4-yl-1H-pyrazol-1-yl]acetyl}-N,N-dimethylpyrrolidin-3-amine] | 0.226 | 0.026 | 0.026 |
| CNC1CCN(C(=O)Cn2nc(-c3ccncc3)cc2Cc2ccc(F)cc2)C1 (stereo not drawn) [Example 74, 1-{[5-(4-fluorobenzyl)-3-pyridin-4-yl-1H-pyrazol-1-yl]acetyl}-N-methylpyrrolidin-3-amine] | 0.19 | 0.046 | 0.114 |
| O=C(Cn1nc(-c2ccncc2)cc1Cc1ccc(F)cc1)N1CCC[C@@H]1CO [Example 75, [(2R)-1-{[5-(4-fluorobenzyl)-3-pyridin-4-yl-1H-pyrazol-1-yl]acetyl}pyrrolidin-2-yl]methanol] | 0.118 | 0.0175 | 0.0215 |
| O=C(Cn1nc(-c2ccncc2)cc1Cc1ccc(F)cc1)N1CCCC(O)C1 (stereo not drawn) [Example 76, 1-{[5-(4-fluorobenzyl)-3-pyridin-4-yl-1H-pyrazol-1-yl]acetyl}piperidin-3-ol] | 0.117 | < 0.0184 | 0.0333 |
| O=C(Cn1nc(-c2ccncc2)cc1Cc1ccc(F)cc1)N1CCC[C@H]1CO [Example 77, [(2S)-1-{[5-(4-fluorobenzyl)-3-pyridin-4-yl-1H-pyrazol-1-yl]acetyl}pyrrolidin-2-yl]methanol] | 0.166 | 0.0511 | 0.0545 |
| CCn1ccnc1CNC(=O)Cn1nc(-c2ccncc2)cc1Cc1ccc(F)cc1 [Example 79, N-[(1-ethyl-1H-imidazol-2-yl)methyl]-2-[5-(4-fluorobenzyl)-3-pyridin-4-yl-1H-pyrazol-1-yl]acetamide] | 0.052 | 0.016 | 0.019 |
| CCc1nc(CNC(=O)Cn2nc(-c3ccncc3)cc2Cc2ccc(F)cc2)no1 [Example 80, N-[(5-ethyl-1,2,4-oxadiazol-3-yl)methyl]-2-[5-(4-fluorobenzyl)-3-pyridin-4-yl-1H-pyrazol-1-yl]acetamide] | 0.0516 | 0.064 | 0.065 |
| O=C(Cn1nc(-c2ccncc2)cc1Cc1ccc(F)cc1)NCc1ncc(F)cn1 [Example 81, 2-[5-(4-fluorobenzyl)-3-pyridin-4-yl-1H-pyrazol-1-yl]-N-[(5-fluoropyrimidin-2-yl)methyl]acetamide] | 0.124 | 0.063 | 0.068 |
| CC(Cc1cnccn1)NC(=O)Cn1nc(-c2ccncc2)cc1Cc1ccc(F)cc1 (stereo not drawn) [Example 82, 2-[5-(4-fluorobenzyl)-3-pyridin-4-yl-1H-pyrazol-1-yl]-N-(1-methyl-2-pyrazin-2-ylethyl)acetamide] | 0.109 | 0.023 | 0.025 |
| CN(C(=O)Cn1nc(-c2ccncc2)cc1Cc1ccc(F)cc1)[C@H]1CC[C@H](O)CC1 [Example 83, 2-[5-(4-fluorobenzyl)-3-pyridin-4-yl-1H-pyrazol-1-yl]-N-(trans-4-hydroxycyclohexyl)-N-methylacetamide] | 0.0458 | 0.015 | 0.0235 |
| NC(=O)[C@@H]1CCC[C@@H]1NC(=O)Cn1nc(-c2ccncc2)cc1Cc1ccc(F)cc1 [Example 84, (1R,2S)-2-({[5-(4-fluorobenzyl)-3-pyridin-4-yl-1H-pyrazol-1-yl]acetyl}amino)cyclo-pentanecarboxamide] | 0.156 | 0.021 | 0.041 |

Other lines, results leading:

| Ki [1] [µM] | IC50 (CYP3A4 [2]) [µM] | IC50 (CYP3A4 [3]) [µM] | SMILES |
| --- | --- | --- | --- |
| 0.0843 | 0.031 | 0.028 | CC(NC(=O)Cn1nc(-c2ccncc2)cc1Cc1ccc(F)cc1)c1cnn(C)c1 (stereo not drawn) [Example 85, 2-[5-(4-fluorobenzyl)-3-pyridin-4-yl-1H-pyrazol-1-yl]-N-[1-(1-methyl-1H-pyrazol-4-yl)ethyl]acetamide] |
| 0.0571 | 0.018 | 0.013 | Cc1cc(CNC(=O)Cn2nc(-c3ccncc3)cc2Cc2ccc(F)cc2)on1 [Example 86, 2-[5-(4-fluorobenzyl)-3-pyridin-4-yl-1H-pyrazol-1-yl]-N-[(3-methylisoxazol-5-yl)methyl]acetamide] |
| 0.108 | 0.019 | 0.019 | Cn1ccnc1CNC(=O)Cn1nc(-c2ccncc2)cc1Cc1ccc(F)cc1 [Example 87, 2-[5-(4-fluorobenzyl)-3-pyridin-4-yl-1H-pyrazol-1-yl]-N-[(1-methyl-1H-imidazol-2-yl)methyl]acetamide] |
| 0.0753 | 0.024 | 0.016 | Cc1cc(CNC(=O)Cn2nc(-c3ccncc3)cc2Cc2ccc(F)cc2)no1 [Example 88, 2-[5-(4-fluorobenzyl)-3-pyridin-4-yl-1H-pyrazol-1-yl]-N-[(5-methylisoxazol-3-yl)methyl]acetamide] |
| 0.0728 | 0.016 | 0.015 | Cc1c(CNC(=O)Cn2nc(-c3ccncc3)cc2Cc2ccc(F)cc2)cnn1C [Example 89, N-[(1,5-dimethyl-1H-pyrazol-4-yl)methyl]-2-[5-(4-fluorobenzyl)-3-pyridin-4-yl-1H-pyrazol-1-yl]acetamide] |
| 0.0773 | 0.019 | 0.012 | Cc1noc(CNC(=O)Cn2nc(-c3ccncc3)cc2Cc2ccc(F)cc2)n1 [Example 90, 2-[5-(4-fluorobenzyl)-3-pyridin-4-yl-1H-pyrazol-1-yl]-N-[(3-methyl-1,2,4-oxadiazol-5-yl)methyl]acetamide] |
| 0.112 | 0.019 | 0.018 | Cc1noc(CCNC(=O)Cn2nc(-c3ccncc3)cc2Cc2ccc(F)cc2)n1 [Example 91, 2-[5-(4-fluorobenzyl)-3-pyridin-4-yl-1H-pyrazol-1-yl]-N-[2-(3-methyl-1,2,4-oxadiazol-5-yl)ethyl]acetamide] |
| 0.0241 | 0.007 | 0.015 | CCCN(C)C1(C(N)=O)CCN(C(=O)Cn2nc(-c3ccncc3)cc2Cc2ccc(F)cc2)CC1 [Example 92, 1-{[5-(4-fluorobenzyl)-3-pyridin-4-yl-1H-pyrazol-1-yl]acetyl}-4-[methyl(propyl)amino] piperidine-4-carboxamide] |
| 0.0227 | < 0.013 | < 0.0225 | O=C(Cn1nc(-c2ccncc2)cc1Cc1ccc(F)cc1)N[C@H]1CC[C@H](O)CC1 [Example 96, 2-[5-(4-fluorobenzyl)-3-pyridin-4-yl-1H-pyrazol-1-yl]-N-(trans-4-hydroxycyclohexyl)-acetamide] |
| 0.232 | 0.045 | < 0.012 | O=C(Cn1nc(-c2ccncn2)cc1Cc1ccc(F)cc1)N1CCN(c2ccccn2)CC1 [Example 97, 4-{5-(4-fluorobenzyl)-1-[2-oxo-2-(4-pyridin-2-ylpiperazin-1-yl)ethyl]-1H-pyrazol-3-yl}pyrimidine] |
| 0.378 | 0.108 | 0.082 | O=C(Cn1nc(-c2ccncc2)cc1Cc1ccc(F)cc1)N1CC(O)C1 [Example 98, 1-{[5-(4-fluorobenzyl)-3-pyridin-4-yl-1H-pyrazol-1-yl]acetyl}azetidin-3-ol] |
| 0.158 | 0.0105 | 0.035 | CCC(=O)NC1CCN(C(=O)Cn2nc(-c3ccncc3)cc2Cc2ccc(F)cc2)CC1 [Example 101, N-(1-(2-[5-(4-fluorobenzyl)-3-pyridin-4-yl-1H-pyrazol-1-yl]acetyl}piperidin-4-yl)propanamide] |
